Experimental findings from PubChem BioAssay (NCI) are described below.

Some test systems named below: SNB-19 CNS; TK-10 renal; SF-268 CNS; 786-0 renal; OVCAR-8 ovarian; DMS 114 small cell lung; DMS 273 small cell lung; M19-MEL melanoma; UACC-62 melanoma; HCT-116 colon; HOP-92 NSCLC; BT-549 breast.
Common to all, as to experiment: NCI-60 cell line screen, 48 h

Values joined by “and” are separate entries in the source; they are usually repeats but may differ in a detail not shown here. Equal entries are not always repeated.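 Each compound was tested at five concentrations against cells in 96-well plates for 48 hours. GI50 is the concentration that inhibits growth by half. TGI is the concentration that stops growth completely.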

Regarding `COCOC1CCCC[C@@]1(OCCOCCO[C@@]1(c2ccccc2)CCCC[C@H]1OCOC)c1ccccc1` (stereo not given in full), the TGI in the assay on SNB-19 CNS, with TK-10 renal, with SF-268 CNS, in the assay on 786-0 renal, in the assay with OVCAR-8 ovarian and in the assay with DMS 114 small cell lung was > 100 µM in each case. Further, the TGI in the assay on DMS 273 small cell lung, in the assay on M19-MEL melanoma, in the assay with UACC-62 melanoma and in the assay on HCT-116 colon was > 100 µM in each case.
As for `COc1ccc(/C(C=O)=C(\Cl)c2ccc(OC)c(OC)c2)cc1`, the TGI in the assay on SNB-19 CNS, in the assay on TK-10 renal, with SF-268 CNS, with OVCAR-8 ovarian, in the assay on DMS 114 small cell lung and in the assay with DMS 273 small cell lung was > 100 µM each time. Also, the TGI with M19-MEL melanoma, in the assay with UACC-62 melanoma and in the assay with HCT-116 colon was > 100 µM throughout.
In the case of `NC1CCC2(O)c3ccccc3C2C1` (stereo not given), the TGI in the assay with SNB-19 CNS, in the assay on TK-10 renal, with SF-268 CNS, in the assay on 786-0 renal, in the assay with OVCAR-8 ovarian and with DMS 114 small cell lung was > 100 µM throughout. The TGI in the assay with DMS 273 small cell lung, in the assay with M19-MEL melanoma, with UACC-62 melanoma and in the assay with HCT-116 colon was > 100 µM throughout.
As for `O=C(O)C1CCC(=O)N1C(=O)COc1cc(Cl)c(Cl)cc1Cl` (stereo not given), the TGI in the assay with SNB-19 CNS, with TK-10 renal, in the assay on HOP-92 NSCLC, in the assay with SF-268 CNS, with OVCAR-8 ovarian and in the assay on DMS 114 small cell lung was > 100 µM each time. The TGI with DMS 273 small cell lung, with M19-MEL melanoma, with UACC-62 melanoma and with HCT-116 colon was > 100 µM in each case.
Regarding `CCOC(=O)C1C(c2ccc(Br)cc2)N(Cc2ccccc2)C(c2ccc(Br)cc2)C(C(=O)OC)S1(=O)=O` (stereo not given), the TGI in the assay with SNB-19 CNS was > 100 µM; with TK-10 renal, > 100 µM; in the assay on SF-268 CNS, > 100 µM; with 786-0 renal it was > 100 µM; in the assay on OVCAR-8 ovarian, 84.6 µM; with DMS 114 small cell lung, > 100 µM. In addition, the TGI with DMS 273 small cell lung, with M19-MEL melanoma, in the assay on UACC-62 melanoma and with HCT-116 colon was > 100 µM in each case.
Take `CCOC(=O)C(Cc1ccc(N=NN(C)C)cc1)NC(=O)CC1c2ccccc2-c2ccccc21` (stereo not given): the TGI in the assay on SNB-19 CNS, in the assay with TK-10 renal, in the assay with SF-268 CNS, with 786-0 renal, in the assay on OVCAR-8 ovarian and with DMS 114 small cell lung was > 100 µM each time. The TGI with DMS 273 small cell lung, in the assay with M19-MEL melanoma, with UACC-62 melanoma and with HCT-116 colon was > 100 µM in each case.
In the case of `Cc1cc(NC(=O)NC(=O)c2ccccc2NC(=O)CN(C)C)ccc1Oc1ncc(Br)cn1`, the TGI in the assay on SNB-19 CNS is > 100 µM; in the assay with TK-10 renal, > 100 µM; in the assay with HOP-92 NSCLC it was > 100 µM; in the assay on SF-268 CNS it was > 100 µM; in the assay on 786-0 renal, > 89.3 µM; with BT-549 breast, > 100 µM. Also, the TGI is > 100 µM with OVCAR-8 ovarian; 35.7 µM in the assay on DMS 114 small cell lung; > 100 µM in the assay with DMS 273 small cell lung; > 100 µM in the assay on M19-MEL melanoma; > 82.9 µM in the assay with UACC-62 melanoma; > 79.4 µM with HCT-116 colon.
For `Cc1cc(-c2ccc(N=Nc3ccc4c(S(=O)(=O)O)cc(S(=O)(=O)O)c(N)c4c3O)c(C)c2)ccc1N=Nc1ccc2c(S(=O)(=O)O)cc(S(=O)(=O)O)c(N)c2c1O`, the TGI with SNB-19 CNS, with HOP-92 NSCLC, with SF-268 CNS, in the assay on OVCAR-8 ovarian, in the assay on DMS 114 small cell lung and in the assay with DMS 273 small cell lung was > 100 µM each time. Also, the TGI with M19-MEL melanoma, with UACC-62 melanoma and with HCT-116 colon was > 100 µM throughout.
In the case of `C/C(CCN(C)C)=N/O`, the TGI in the assay on SNB-19 CNS is > 100 µM; with TK-10 renal it was 20.2 µM; in the assay with HOP-92 NSCLC it was 25.5 µM; in the assay with SF-268 CNS, 2.49 µM; in the assay on 786-0 renal it was 13.2 µM; with OVCAR-8 ovarian, 22.8 µM. Moreover, the TGI in the assay on DMS 114 small cell lung was found to be 20.7 µM; in the assay on DMS 273 small cell lung it was 18.3 µM; with M19-MEL melanoma, 23 µM; with UACC-62 melanoma, 24 µM; with HCT-116 colon it was 12.5 µM.
Take `CC(C)C(NCc1c2ccccc2[n+](C)c2ccccc12)C(=O)O` (stereo not given): the TGI with SNB-19 CNS was 33 µM; in the assay with TK-10 renal, 21.3 µM; with HOP-92 NSCLC, 12.5 µM; in the assay on SF-268 CNS, 10.9 µM; in the assay on 786-0 renal, 15.6 µM; with OVCAR-8 ovarian it was 15.1 µM. The TGI was determined as 5.79 µM in the assay on DMS 114 small cell lung; 13.3 µM with DMS 273 small cell lung; 21.2 µM with M19-MEL melanoma; 18.6 µM in the assay with UACC-62 melanoma; 13.6 µM in the assay on HCT-116 colon.
For `C[n+]1c2ccccc2n2c3ccccc3c(NCCCn3ccnc3)c(C#N)c21`, the TGI in the assay on SNB-19 CNS is > 31.2 µM; in the assay with TK-10 renal, 59.5 µM; in the assay on HOP-92 NSCLC it was > 20.2 µM; in the assay with SF-268 CNS, 6.98 µM; with 786-0 renal, 10.6 µM; with BT-549 breast, > 100 µM. For the same molecule, the TGI in the assay on OVCAR-8 ovarian is 8.43 µM; in the assay with UACC-62 melanoma, 17.6 µM; with HCT-116 colon it was 10.1 µM.
As for `Cc1nnc(SCc2nc(C#N)c(C#N)nc2CSc2nnc(C)s2)s1`, the TGI in the assay on SNB-19 CNS is > 100 µM; in the assay on TK-10 renal, 16.3 µM; with HOP-92 NSCLC it was 26.8 µM; with SF-268 CNS it was 35.4 µM; with 786-0 renal, 28.8 µM; in the assay with BT-549 breast, 36.3 µM. The TGI with OVCAR-8 ovarian was > 100 µM; in the assay with UACC-62 melanoma, 30.7 µM; in the assay with HCT-116 colon, 11.5 µM.
For `COc1ccccc1N=Nc1c(O)ccc2ccccc12`, the TGI in the assay with SNB-19 CNS is > 74.7 µM and 90.4 µM; in the assay on TK-10 renal, 31.8 µM and 59.1 µM; with HOP-92 NSCLC it was 56.3 µM and 42.5 µM; in the assay with SF-268 CNS, > 100 µM; with 786-0 renal, 26.7 µM and 40.3 µM; in the assay with BT-549 breast, > 100 µM. The TGI in the assay with OVCAR-8 ovarian, with UACC-62 melanoma and in the assay with HCT-116 colon was > 100 µM each time. The GI50 with UACC-62 melanoma was 30.4 µM and 61.4 µM.
Turning to `C/C(=N/NC(=S)Nc1ccc(C)cc1)c1ccccn1`, the TGI with SNB-19 CNS is 20.6 µM; in the assay on TK-10 renal it was 6.77 µM; in the assay with HOP-92 NSCLC it was 12.5 µM; with SF-268 CNS, 16.4 µM; in the assay on 786-0 renal, 12.7 µM; in the assay with BT-549 breast, 18.7 µM. The TGI was determined as 7.51 µM in the assay with OVCAR-8 ovarian, 2.64 µM in the assay with UACC-62 melanoma and 13 µM with HCT-116 colon.
For `O=C(/C=C/c1ccccc1)c1cc(CN2CCOCC2)c(O)c(CN2CCOCC2)c1`, the TGI with SNB-19 CNS was > 100 µM; with TK-10 renal, 55.6 µM; in the assay on HOP-92 NSCLC it was 26.9 µM; with SF-268 CNS it was 46.6 µM; in the assay on 786-0 renal, 29 µM; in the assay with BT-549 breast, 85.3 µM. The TGI in the assay with OVCAR-8 ovarian is > 100 µM; in the assay on UACC-62 melanoma, 39.5 µM; in the assay on HCT-116 colon it was 31.3 µM.
For the molecule `CC1=NC(=N)N=C(C)C1N=Nc1ccc2nc(C)[nH]c2c1` (stereo not given), the TGI in the assay on SNB-19 CNS, in the assay on TK-10 renal, with HOP-92 NSCLC, with SF-268 CNS, with 786-0 renal and with BT-549 breast was > 100 µM throughout. In addition, the TGI in the assay with OVCAR-8 ovarian, in the assay on UACC-62 melanoma and in the assay with HCT-116 colon was > 100 µM each time.
Take `CCCCCCCCCCCCCCCCNc1nc(=O)n(C2OC(C)C(O)C2O)cc1F` (stereo not given): the TGI in the assay on SNB-19 CNS was found to be 39.7 µM; in the assay with TK-10 renal, 30.6 µM; in the assay on HOP-92 NSCLC it was 45.7 µM; with SF-268 CNS, 44.5 µM; in the assay with 786-0 renal, 35.6 µM; in the assay with BT-549 breast, 35.1 µM. In addition, the TGI in the assay on OVCAR-8 ovarian was determined as 52.6 µM; with UACC-62 melanoma, 29 µM; in the assay with HCT-116 colon, 36.7 µM.
For `CN1C(c2ccccc2)CC(O)CC1c1ccccc1` (stereo not given), the TGI in the assay on SNB-19 CNS, with TK-10 renal, in the assay with HOP-92 NSCLC, in the assay on SF-268 CNS, in the assay on 786-0 renal and with OVCAR-8 ovarian was > 100 µM throughout. In addition, the TGI in the assay with DMS 114 small cell lung, in the assay with DMS 273 small cell lung, in the assay on M19-MEL melanoma, in the assay on UACC-62 melanoma and in the assay with HCT-116 colon was > 100 µM throughout.
Consider `CC1(C)CCC[C@@]2(C)C1CC[C@@]1(CO)O[C@H](C3=CC(=O)OC3O)C[C@H]12` (stereo not given in full), for which the TGI in the assay on SNB-19 CNS was 32.3 µM; in the assay with TK-10 renal, 34.4 µM; with HOP-92 NSCLC it was 38.2 µM; with SF-268 CNS, > 55.6 µM; in the assay with 786-0 renal, 38.6 µM; in the assay on BT-549 breast, 20.7 µM. The TGI in the assay with OVCAR-8 ovarian came out at 36.2 µM; in the assay with UACC-62 melanoma, 15.3 µM; in the assay with HCT-116 colon, 18.6 µM.
Regarding `COC(=O)[C@H](C)NC(=O)[C@H](NS(=O)(=O)c1nc2ccccc2s1)c1ccccc1`, the TGI with SNB-19 CNS was 73.3 µM; with TK-10 renal, > 100 µM; in the assay with HOP-92 NSCLC, 27.4 µM; with SF-268 CNS, 33.5 µM; in the assay with 786-0 renal, 80.4 µM; with BT-549 breast, > 100 µM. For the same molecule, the values for the TGI in the assay on OVCAR-8 ovarian, in the assay with UACC-62 melanoma and in the assay on HCT-116 colon were 33.7 µM, 28.3 µM and > 100 µM, respectively.
On to `CCOC(=O)CNC(=O)c1[nH]cnc1/N=N/N(C)C`, for which the TGI with SNB-19 CNS, in the assay on TK-10 renal, in the assay on SF-268 CNS, in the assay with 786-0 renal, in the assay on OVCAR-8 ovarian and with DMS 114 small cell lung was > 100 µM each time. Further, the TGI with DMS 273 small cell lung, in the assay with M19-MEL melanoma, with UACC-62 melanoma and with HCT-116 colon was > 100 µM throughout.
